{"source": "patent US5908868A", "about": "“Retinol derivatives useful for enhancing immune response” (priority 1995, dated 1999)", "key": {"5/2 cells": {"tested_on": "5/2 cells", "test": "Growth (DNA synthesis, [3H]thymidine) of lymphoblastoid 5/2 cells in serum-free medium", "type": "cell-based, human", "settings": "ITLB medium without retinol", "experimental": "Washed 5/2 cells (5,000/well) were incubated for 72 hours in HB101 medium with the indicated amounts of retinoids. DNA synthesis was measured by [^3 H] thymidine uptake. The measurements were done in triplicate. The SDs were <15%.\nIn FIGS. 4B to 4D, 5/2 cells were washed twice and seeded at a concentration of 150,000 cells/ml in HB 101 medium. Triplicate samples of 100 μl of cell suspension were removed daily and pulsed for 6 hours with [^3 H] thymidine. Means are shown. The SDs were never >20%.\nP3 was purified as described in the Experimental Details section. 5/2 cells (5,000/well) were incubated for 72 hours in HB101 medium and refed with the indicated amount of retinoid daily. DNA synthesis was measured by [^3 H]-thymidine uptake. P3 is bioactive down to a concentration of 10-^8 M (FIG. 8). […] This is due either to chemical instability or to a more rapid metabolic degradation of P3 by the cells.\nThe assay was done in 96-well microtiter plates in a final volume of 200 ul/well. The cells were cultured for 72 hours and cell growth determined by [^3 H] thymidine (0.8 μCi/well)labeling for the last 16 hours. Retinoids were added at the indicated concentrations at the initiation of culture and every 24 hours thereafter.\nThe human EBV-transformed B-cell line 5/2 was established from the peripheral blood of a healthy donor. The cell line was grown in RPMI 1640 supplemented with 8% fetal calf serum, L-glutamine (2 mM), and antibiotics. The cell line was tested regularly for mycoplasma infections and was consistently negative.\nThe assay system is a modification of the assay developed by Blazar et al. (12). […] Assays were done in 96 well microtiter plates in a final volume of 200 μl/well or in 25 cm^2 tissue culture flasks. The cells in the microtiter plates were cultured for 72 hours and cell growth was determined by labeling for the last 16 hours with 0.8 μCi/well of [^3 H]thymidine (sp. act. 6.7 Ci/mmol). Growth in the culture flasks was determined in three aliquots of 100 μl taken at 24 hours intervals and cultured in the presence of 0.8 μCi of [^3 H]thymidine for an additional 6 hour period. To determine the viable cell number, nine aliquots per time point were differentially counted in a Neubauer chamber in the presence of trypan blue.\n5/2 cells were grown in the absence of retinol in a medium containing the basic RPMI 1640 amino acid/salt mixture, insulin (5 μg/ml), transferrin (5 μg/ml), albumin (0.1%) and linoleic acid (10^-6 M) (ITLB). […] The dose-response curve shown in FIG. 26 indicates an effective concentration of 10^-7 M."}, "lymphoblastoid 5/2 cells": {"tested_on": "lymphoblastoid 5/2 cells", "test": "Conversion of 13,14DHR to 14HRR by lymphoblastoid cells", "type": "in vitro ADME, human", "settings": "10^-6 M, 1 and 2 hours, ITLB", "experimental": "FIGS. 25A through 25D. 13,14DHR can be converted to 14HRR by lymphoblastoid cells. 200,000 5/2 cells/ml were incubated with or without 10^-6 M 13,14DHR added in serum-free ITLB medium. After 1 and 2 hours, cells pellets corresponding to 10 ml of culture were delipidated and the corresponding lipid fractions separated on an analytical C18 reversed-phase column according to FIG. 20. Peaks were identified according to their retention times and their UV absorption patterns.\nLymphoblastoid 5/2 cells devoid of retinol were cultured in the presence or absence of 10^-6 M 13,14DHR for 1 and 2 hours in ITLB medium. The retinoids extracted from the cell pellets were separated by HPLC according to FIG. 20. […] There was no 14HRR measurable in control cultures."}, "T cells": {"tested_on": "T cells", "test": "T cell activation/proliferation", "type": "cell-based, murine", "settings": "with mitogen/anti-CD3", "experimental": "They were seeded into 96-well flat-bottom plates at varying cellular densities in a final volume of 100 μl. In control experiments, cells were cultured in medium containing 10% FCS or 3% human serum and 5×10^-5 M 2 ME. […] Cultures were carried out in duplicate. Plates were incubated at 37° C. in a humidified 5% CO2 atmosphere. Cellular proliferation was determined by [^3 H] thymidine uptake (0.5 uCi/well; New England Nuclear, Boston, Mass.) after the incubation times indicated for each experiment with a 4 hour labeling pulse. Cells were harvested onto glass filter and [^3 H]TdR incorporation was determined by liquid scintillation counting. The data presented are the means of duplicate or six replicate cultures. The restriction to duplicate measurements was necessary to conserve scarce 14HRR. […] Each experiment was repeated at least twice."}, "[1]": {"tested_on": "lymphoblastoid cells (LCL)", "settings": "serum-free medium; cited from earlier work"}, "lymph node T cells": {"tested_on": "lymph node T cells", "test": "Proliferation of anti-CD3 activated lymph node T cells", "type": "cell-based, BALB/c mouse", "source_text": "Growth curves of lymph node T cells depleted of antigen-presenting cells (FIG. 17A) with and without 10^-6 M retinol at 2×10^5 and 5×10^4 cells/well. (FIG. 17B) Dose-responses elicited by different retinoids in cultures of lymph node T cells depleted of antigen-presenting cells. Also shown are the growth curves of CD4^+ (FIG. 17C) and CD8^+ T lymphocytes (FIG. 17D) in the presence of either retinol, 14HRR, human serum or in their absence.\nT lymphocytes, purified as described, 5×10^4 well, were activated with immobilized anti-CD3 antibody in ITLB medium. The indicated amounts of retinoids or human serum were added at initiation of cultures. […] 14HRR was added every 12 hours. DNA synthesis was measured by a 4 hour pulse with tritiated thymidine. SDs were ≤17%.\nMature T cells were obtained from pooled intestinal, axillary, inguinal and submandibular lymph nodes of 4 to 10-week-old BALB/c mice. To fractionate cells into CD4 and CD8 subsets and at the same time remove APC, a combination of adherence and complement lysis was used as follows:\nCells were cultured in serum-free medium, referred to as ITLB, containing RPMI 1640 supplemented with 8×10^-7 M insulin (5 μg/ml), 7×10^-8 M transferrin (5 μg/ml), 2×10^-6 M linoleic acid, 2×10^-6 M delipidated BSA (0.12 mg/ml), 2 mM L-glutamine, 1 mM sodium pyruvate and antibiotics. They were seeded into 96-well flat-bottom plates at varying cellular densities in a final volume of 100 μl. In control experiments, cells were cultured in medium containing 10% FCS or 3% human serum and 5×10^-5 M 2 ME. T cells and thymocytes were activated with immobilized, purified anti-mab CD3e or by the addition of Con A in the presence or absence of different concentrations of retinoids. Unless indicated otherwise, retinoids were replenished every 12 hours to maintain a reasonably constant concentration of these labile compounds in culture. The optimal concentration for stimulation of T cells was determined for each batch of anti-CD3 mAb and Con A. The optimal range of Con A was particularly narrow in serum-free medium (0.5-0.2 μg/ml) and varied with the cell density used. […] Cultures were carried out in duplicate. Plates were incubated at 37° C. in a humidified 5% CO2 atmosphere. Cellular proliferation was determined by [^3 H] thymidine uptake (0.5 uCi/well; New England Nuclear, Boston, Mass.) after the incubation times indicated for each experiment with a 4 hour labeling pulse. Cells were harvested onto glass filter and [^3 H]TdR incorporation was determined by liquid scintillation counting. The data presented are the means of duplicate or six replicate cultures. The restriction to duplicate measurements was necessary to conserve scarce 14HRR. They were within 20% of each other. Each experiment was repeated at least twice."}}, "note": "“Also recorded” adds a separate entry of the source.", "data": [{"smiles": "CC(C=CC1=C(C)CCCC1(C)C)=CC=CC(C)(O)C(O)CO", "note": "(stereo not drawn) [13,14DHR, 13,14-dihydroxy-retinol]", "values": [{"measurement": "restoration of capacity to proliferate", "setting": "5/2 cells", "result": "proliferation was restored as well"}, {"measurement": "conversion to 14HRR", "setting": "lymphoblastoid 5/2 cells", "result": "produced 14HRR"}, {"measurement": "substitution for retinol in T cell activation", "setting": "T cells", "result": "can effectively substitute for retinol"}, {"measurement": "substitution for retinol in T cell activation", "setting": "T cells; listed as 13,14 DHR", "result": "capable of being used in lieu of retinol"}]}, {"smiles": "CC1=C(/C=C/C(C)=C/C=C/C(C)=C/C(=O)O)C(C)(C)CCC1", "note": "[all-trans retinoic acid]", "values": [{"measurement": "support of growth of LCL", "setting": "[1]", "result": "not"}, {"measurement": "stimulatory activity at 10^-5 M", "setting": "lymph node T cells; 10^-5 M", "result": "very modest stimulatory activity"}, {"measurement": "stimulation of lymph node T cells", "setting": "lymph node T cells; anti-CD3", "result": "nearly inert"}, {"measurement": "substitution for retinol in T cell activation", "setting": "T cells", "result": "not"}, {"measurement": "substitution for retinol in T cell activation", "setting": "T cells; listed as retinoic acid", "result": "cannot be satisfied; also recorded: neither respond to externally provided retinoic acid"}]}]}
